Columns and labels:
Type in all cases: cell-based
[1] = system: pS6K1 in MCF7 (measure of mTORC1 activity); test: AlphaLISA Ultra pS6K1 assay; settings: Homo sapiens, MCF7, 2 h, MCF-7 cells, 2 hours compound incubation
Summary of the method: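 MCF7 cells, refreshed medium 2 h, treated with compound 2 h at 0.5% DMSO final, then lysed. Phospho-S6K1 in lysates detected by AlphaLISA Ultra (acceptor beads 2 h, donor beads 2 h), read as Alpha signal on a multimode reader.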

[2] = system: pAKT in MCF7 (measure of mTORC2 activity); test: AlphaLISA Ultra pAKT assay; settings: Homo sapiens, MCF7, 2 h, MCF-7 cells, 2 hours compound incubation
Summary of the method: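 MCF7 cells, 16,000-20,000 per well, treated with compound for 2 h at 0.5% final DMSO, then lysed. Phospho-AKT, as a readout of mTORC2 activity, measured by AlphaLISA Ultra with acceptor beads and then donor beads, 2 h each.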

[3] = system: Glucose uptake in MCF-7 cells; test: Radioactive glucose uptake in MCF-7 cells; settings: Homo sapiens, MCF7, 3H-2DG uptake, 20 mins
Description: Example 157: Radioactive Glucose Uptake in MCF-7 Cells
Assay Protocol • 1. Seed approximately 12,000 MCF-7 cells cultured without insulin per well in 96-well plates (BIOCOAT, #356690) and let the cells sit in hood for 30 min. (Cell culture medium: DMEM+10% FBS). • 2. Put the cell culture plates in TC incubator (5% CO2, 37° C.) and incubate overnight. • 3. Take out the cell plates and wash with prewarmed KRH buffer (37° C.) three times using BioTek plate washer. (KRH buffer preparation: 136 mM NaCl, 4.7 mM KCl, 1.25 mM MgCl2, 1.2 mM CaCl2, 20 mM HEPES, 0.1 mg/ml sodium pyruvate, 0.1% BSA, pH 7.4). • 4. Compound preparation and treatment: • a) Add 12 ul compound stock in 100% DMSO to the first column of Echo LDV plate • b) Serially dilute the compound solution in 100% DMSO (4 uL+8 uL DMSO) using Bravo for 9 doses • c) Dispense 350 nL compounds using Echo to the working plate • d) i) Without compound preincubation condition, dispense 116 uL KRH buffer containing tritiated 2-deoxy-D-glucose (3H-2DG) and 2-deoxy-D-glucose (2DG) to the working plate and mix. • ii. With compound preincubation condition, dispense 110 uL KRH buffer only to the working plates and mix • e) Keep the compound working plate at 37° C. incubator until use • 5. Discard the KRH buffer (cells were kept in KRH buffer for 10-15 min before 2-DG addition) and transfer 100 uL compound working solution out to the cell culture plate using Bravo. Incubate for 20 mins at 37° C. (2DG final at 0.2 mM, 3H-2DG at 10 uCi/mL). • 6. Add prewarmed 50 uL KRH buffer (37° C.) containing 60 mM cold 2DG to the wells to stop the 2DG uptake using Multidrop combi • 7. Wash the cells with prewarmed PBS three times using BioTek plate washer • 8. Add 50 uL lysis buffer (0.1 M NaOH) into the assay plate to lyse the cells using Bravo and shake at 800 rpm for 30 min. • 9. Mix and transfer 20 uL lysate to a new white plate (Corning, #3610) and add 200 uL MicroScint-20 using Bravo • 10. Shake the plate at 1000 rpm for 30 min and count in a MicroBeta plate reader.

Row | IC50 [1] [nM] | IC50 [2] [nM] | IC50 [3] [nM] | Compound
1 | 10 to 1000 | > 300 | 10 to 1000 | Cc1c(CN2CCN(c3ccccc3C#N)CC2)cc(C(=O)N2CCN(c3ccc(F)cn3)CC2)n1C [Example I-63]
2 | 10 to 1000 | > 300 | 10 to 1000 | Cc1c(CN2CCN(c3ccccc3Cl)CC2)cc(C(=O)N2CCN(c3ccc(F)cn3)CC2)n1C [Example I-72]
3 | 1000 to 3000 | > 5000 | > 3000 | Cc1c(CN2CCN(c3ccccc3Cl)CC2)cc(C(=O)N2CCn3c(cc4ccccc43)C2)n1C [Example I-76, (4-((4-(2-chlorophenyl)piperazin-1-yl)methyl)-1,5-dimethyl-1H-pyrrol-2-yl)(3,4-dihydropyrazino[1,2-a]indol-2(1H)-yl)methanone]

From patent publication US20190389843A1, “PYRROLE mTORC INHIBITORS AND USES THEREOF” (Navitor Pharmaceuticals, Inc., priority 2016, published 2019)
